Experimental data reported in patent publication US5821046A, “RNA oligonucleotides that bind HIV tat protein” (RiboTargets Holdings PLC, priority 1990, dated 1998).
“Also recorded” adds a separate entry of the source. Read-outs that look alike come from different tables or passages of the source.

Experiments:
tat protein = experiment: competition filter binding assay with chemically synthesized RNA (Table 4); design: species or system HIV-1; details: for IC50: 40 nM tat, read-out: D1/2
Protocol: Competition binding reactions (0.5ml) in TK buffer (50 mM Tris.HCl(pH7.9 at 0.5M and 22° G), 20 mM KCl ) included 10nM ^32 p labeled 59-mer (ca. 20,000 cpm) , 40nM tat protein, 5 ug/ml calf thymus DNA, 2 ug/ml yeast tRNA, 40 units of RNAsin (Promega) and varying concentrations (0-300 nM) of unlabeled competitor RNA (59-mer [SEQ ID NO: 1; ], 29-mer [SEQ ID NO: 12] or preannealed (slow cooled from 90° C.) 14-mer [SEQ ID NO: 14; nucleotides 2-15] and 17-mer [SEQ ID NO: 13; nucleotides 1- 17]). Binding was allowed to take place for 2-15 minutes on ice and each reaction was filtered through a twice prewashed (0.6 ml of ice-cold TK buffer) Millipore GS filter (2.5 cm disks, 0.22 um pore) and the filter washed with TK buffer (0.6 ml). Dried filters were counted by liquid scintillation. Results were plotted on a graph (FIG. 19) showing counts retained on the filter versus the concentration of competitor RNA added.
Competition binding reactions (0.5 ml) in TK buffer included 10 nM duplex formed from ^32 P-labeled and unlabeled 29-mer (ca. 20,000 cpm) or 10 nM duplex formed from ^32 P-labeled and unlabeled 17-mer annealed to unlabeled 14-mer, 40 nM tat protein, 5 ug/ml calf thymus DNA, 2 ug/ml yeast tRNA and varying concentrations (0-120 nM) of unlabeled competitor RNA (29-mer or modified 29-mer (FIG. 21), or 17-mer +14-mer duplex or modified 7-mer +14-mer duplex (22, 23 and 24) and were carried out as described above.
Competition binding reactions (0-5 ml) in TK buffer included 10 nM duplex formed from ^32 P-labelled (ca. 20,000 cpm) and unlabelled 18-mer [SEQ ID NO: 13] annealed to unlabelled 15-mer [SEQ ID NO: 14], 40 nM tat protein, 5 ug/ml calf thymus DNA, 2 ug/ml yeast TRNA and varying concentrations (0-120 nM) of unlabelled competitor RNA (59-mer [SEQ ID NO: 1] or 18-mer [SEQ ID NO: 13]+15-mer [SEQ ID NO: 14] duplex, or modified 18-mer [SEQ ID NO: […]

HIV-1 tat protein [1] = assay type: binding; details: 32P-labeled RNA transcript, 0 to 600 ng tat
Protocol: i) Gel retardation assays (FIG. 6) Method RNA transcripts were prepared by transcription with either T3 or T7 RNA polymerases of TAR regions residues +1 to +57, cloned between the HindIII and EcoRI sites of the Bluescribe M13+expression vector (Stratagene). RNA transcripts corresponding to HIV-1 TAR [SEQ ID NO: 1], SSA [SEQ ID NO: 3], SAA and SAS [SEQ ID NO: 5] were synthesized from clones linearized with EcoRI and transcribed with T3 RNA polymerase. RNA transcripts corresponding to the antisense HIV-1 TAR […], AAS , ASS [SEQ ID NO: 4], and ASA (not shown) sequences were prepared from the same plasmids linearized with HindIII and transcribed using T7 RNA polymerase. All other RNA molecules were synthesized using T3 RNA polymerase following EcoRI cleavage of the plasmid vector. The RNA products each carry 13 nucleotides of vector sequence at their 5' end and four nucleotides at their 3' ends. […] Transcription mixtures contained 1 ug linearized plasmid, 40 mM Tris-HCl pH 8.0, 10 mM MgCl 2, 2 mM Spermidine-HCl, 50 mM NaCl, 100 uM each ribonucleotide triphosphate, 40 uCi (alpha-^32 P) UTP (410 Ci/m mol) and 10 units of RNA polymerase in a final volume of 30 ul and were incubated at 37° C. for 30 minutes. After phenol extraction and precipitation from ethanol the RNA was purified from a 9% polyacrylamide denaturing gel. The specific activity of the RNA product was determined and appropriate amounts were used in binding assays. Binding reaction mixtures (1 5ul) contained 1 ng of uniformly labeled RNA probe, 0.5 ug calf thymus DNA, 0.2 ug yeast TRNA, 40 units RNAsin (Promega), 50 mM Tris-HCl and 20 mM KCl and 0 to 600 ng tat protein, prepared from E. coli beta-galactosidase-tat fusion proteins, as described previously (6). After incubation at either 30° C. or 4° C. for 10-20 minutes, the reaction mixtures were applied to a 6% non-denaturing polyacrylamide gel (Acrylamide: Bis, 40:0.5) in 3.3 mM sodium acetate, 6.7 mM Tris (adjusted to pH 7.9 with HCl). The gel buffer was recirculated during electrophoresis at 35 mA for approximately 2 hours at room temperature. Gels were dried and exposed to X-ray film at -80° C. using intensifying screens.

HIV-1 tat protein [2] = experiment: competition filter binding assay, mutant TAR transcripts against labelled HIV-1 TAR RNA (FIG. 7, Table 1); details: 20 nM TAR RNA, 40 nM tat protein; for IC50: read-out: D1/2 (concentration of competitor RNA that reduces binding of HIV-1 tat to HIV-1 TAR RNA to 50%)
Protocol: Binding reactions (500 ul) were set up on ice and contained 80 pM ^32 P-labeled TAR RNA (17,600 dpm, 200 uCi/n mol) and unlabeled TAR RNA to give a final concentration of 20 nM, 0.5 ug calf thymus DNA, 0.2 ug yeast tRNA, 40 units RNAsin (Promega), 50 mM Tris HCl and 20 mM KCl. After addition of competitor RNA, binding was initiated by addition of HIV-1 tat protein to a final concentration of 400 ng/ml (40 nM). The binding reaction mixtures were then filtered under reduced pressure through pre-washed nitrocellulose filters (Millipore 0.45 uM pore size) and filters were dried and counted by liquid scintillation counting.
The fraction of^32 P-labeled TAR RNA bound was plotted against the final concentration of competitor RNA. In these experiments reactions included 20 nM TAR and 40 nM tat protein and increasing amounts of unlabeled competitor RNA from 40 nm to 6 uM. […] In theory, 40 nM tat will bind 50% of the input TAR RNA (D1/2) when the total TAR RNA concentration is 56 nM.
For competition experiments, binding reactions (500 ul) were set up on ice and contained 80 pM ^32 P-labeled TAR RNA (17,600 dpm, 200 uCi/n mol) and unlabeled TAR RNA to give a final concentration of 20 nM, 0.5 ug calf thymus DNA, 0.2 ug yeast TRNA, 40 units RNAsin (Promega), 50 mM Tris-HCl pH 7.9 and 20 mM KCl. After addition of 0 to 6 uM competitor RNA, binding was initiated by addition of HIV- 1 tat protein to a final concentration of 400 ng/mi (40 nM). The binding reaction mixtures were then filtered under reduced pressure through pre-washed nitrocellulose filters (Millipore 0.45 u pore size) and filters were dried and counted by liquid scintillation counting.
KRel is the ratio of the D1/2 values for HIV-1 TAR and competitor RNA.

Substance | complex formation with tat in gel retardation assay (HIV-1 tat protein [1]) | KRel (ratio of D1/2 values for HIV-1 TAR and competitor RNA) (HIV-1 tat protein [2]) | IC50 (HIV-1 tat protein [2]) [nM] | also measured
HIV-1 TAR (UUU): full length HIV-1 TAR RNA of 59 residues prepared by transcription, wild type, UUU bulge (GGGUCUCUCUGGUUAGACCAGAUUUGAGCCUGGGAGCUCUCUGGCUAACUAGGGAACCC; unmodified RNA) [reference compound] | discrete complex formation | 1.00 | 64 | Krel (59-mer) (tat protein; 32P-end labelled 18-mer annealed to 15-mer): 1.0; IC50 (tat protein; 32P-end labelled 18-mer annealed to 15-mer 10 nM, competitor 0-120 nM): 18 nM; Krel (59-mer) (tat protein; 32P-labeled 59-mer transcript 10 nM): 1.0; IC50 (tat protein; 32P-labeled 59-mer transcript 10 nM, competitor 0-300 nM): 40 nM; Krel (29 or 14 +17) (tat protein; relative to 14 +17 duplex, 32P-end labelled 18-mer annealed to 15-mer): 2.8
SSA: sense stem, antisense loop sequence (GGGUCUCUCUGGUUAGACCAGAUUUGAGCUCCCAGGCUCUCUGGCUAACUAGGGAACCC; chemistry not given here) | discrete complex formation |  |  | 
G28 to C28: TAR point mutation expected to disrupt the top of the TAR stem/loop structure (GGGUCUCUCUGGUUAGACCAGAUUUGACCCUGGGAGCUCUCUGGCUAACUAGGGAACCC; chemistry not given here) | failed to bind to tat | 0.09 | 680 | 
G to U (loop): TAR RNA in which residues 32-34 are changed to uridine (U) (GGGUCUCUCUGGUUAGACCAGAUUUGAGCCUUUUAGCUCUCUGGCUAACUAGGGAACCC; RNA, backbone not given here) | discrete complex formation | 0.97 | 66 | 
delta U (bulge): TAR RNA in which residues 23-25 are deleted (GGGUCUCUCUGGUUAGACCAGAGAGCCUGGGAGCUCUCUGGCUAACUAGGGAACCC; RNA, backbone not given here) |  | 0.15 | 420 | complex formation with tat in gel retardation assay (HIV-1 tat protein [1]; listed as SEQ ID NO: 8): abolished tat binding; complex formation with tat in gel retardation assay (HIV-1 tat protein [1]; listed as delta U3 (bulge)): No complexes were formed; IC50 (HIV-1 tat protein [2]; listed as SEQ ID NO: 8): 290 nM
ASS: anti-sense lower stem, sense upper stem and loop sequences (GGGUUCCCUAGUUAGACCAGAUUUGAGCCUGGGAGCUCUCUGGCUAACCAGAGAGACCC; chemistry not given here) | discrete complex formation |  |  | 
SAS: anti-sense upper stem flanked by sense lower stem and loop sequences (GGGUCUCUCUGGUUAGCCAGAGAGCCUGGGAGCUCAAAUCUGGUCUAACUAGGGAACCC; chemistry not given here) | No complexes were formed; also recorded: fail to form complexes |  |  | 
